# Reference: patent US10894817B2, “Fatty acid modified urocortin-2 analogs for the treatment of diabetes and chronic kidney disease” (priority 2016, dated 2021)
# pEC50: −log10 of the molar value. Like-named read-outs stand apart in the source and are kept apart here. Starred links: 1 amine or outer side, 2 acyl side, 3 side chain; linkers in the order of their positions; H or OH if unused. Residues, ends and D or L forms follow the SMILES beside them. Groups on a side chain read outwards from the residue. *: point of attachment. C18 diacid = O=C(O)CCCCCCCCCCCCCCCCC(=O)*; γGlu = O=C(O)[C@H](CCC(=O)[*:2])N[*:1]; Palmitoyl = CCCCCCCCCCCCCCCC(=O)*; AEEA = NCCOCCOCC(=O)O
# Target: T1, human CRHR2b (Homo sapiens, UniProt Q13324)
# T1 construct: expressed in transfected cells; host or cells: Chinese Hamster Ovary (CHO) cells, transient transfection
# T1 sequence (Q13324 1-438 isoform Q13324-2): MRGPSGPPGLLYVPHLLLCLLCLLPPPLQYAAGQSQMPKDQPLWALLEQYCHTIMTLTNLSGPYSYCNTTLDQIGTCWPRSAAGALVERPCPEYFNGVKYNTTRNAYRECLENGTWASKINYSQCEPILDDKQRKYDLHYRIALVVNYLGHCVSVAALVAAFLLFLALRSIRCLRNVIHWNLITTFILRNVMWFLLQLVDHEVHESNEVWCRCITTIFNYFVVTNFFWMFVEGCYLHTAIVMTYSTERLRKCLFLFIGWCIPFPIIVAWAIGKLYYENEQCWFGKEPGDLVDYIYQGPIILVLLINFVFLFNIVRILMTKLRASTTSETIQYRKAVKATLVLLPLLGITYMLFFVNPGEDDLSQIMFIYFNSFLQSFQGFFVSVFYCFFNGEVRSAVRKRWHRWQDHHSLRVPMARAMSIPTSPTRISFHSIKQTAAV
# Experiment: human CRHR2b cell-based cAMP assay
# Method: CRHR agonistic activity is measured in a cell-based cAMP assay. Serial dilutions of the test peptides are made in assay buffer containing Hank's Balanced Salt Solution (HBSS, without phenol red) supplemented with 20 mM HEPES and 0.05% lactalbumin enzymatic hydrolysate (LAH) (“assay buffer”). […] A one to three dilution of the test peptides is used in both assays. Receptor over-expressing Chinese Hamster Ovary (CHO) cell line is used for the human CRHR2b assay. […] AF011406.1). Forty-eight hours after the transfection, the cells are centrifuged to remove the culture media and resuspended in fetal bovine serum containing 5% DMSO. They are cryofrozen and stored in vials in liquid nitrogen (20×10^6 cells/ml/vial). On the day of the assay, cells are thawed and resuspended in cold 30 ml culture media supplemented with 20 mM HEPES. The cells are then centrifuged to remove the media and washed once with HBSS supplemented with 20 mM HEPES. Finally, following the last centrifugation, the cells are resuspended in assay buffer. Thirty-thousand cells are used in the human CRHR2b assay for each treatment. The cells are dispensed into Costar 96-well black polystyrene half area EIA/RIA plates (Corning Incorporated, Corning, N.Y.) followed by the addition of the diluted peptides, each at a volume of 20 μL. The agonist induced cAMP levels are detected using a HTRF cAMP Dynamic 2 kit (CisBio, Bedford, Mass.). After incubation at 37° C. for 30 min, the assay is stopped by cell lysis via the addition of 20 μL of d2-labeled cAMP and followed by 20 μL of cryptate-labeled anti-cAMP antibody, as described by the manufacturer. Cellular cAMP (as a result of agonist stimulation) competes with the d2-labeled cAMP for binding to the antibody. HTRF detection is performed on an Envision plate reader (Perkin Elmer Life and Analytical Sciences, Waltham, Mass.) by measuring ratiometric emission at 620 and 665 nm after excitation at 320 nm. The data are converted to picomoles of cAMP using a standard curve obtained from the same assay performed with varying concentrations of unlabeled cAMP. […] The data are analyzed using a Curve Fitting Tool to calculate ED50. Numeric values shown below in Table 1 represent the mean of multiple runs (number of runs shown in parentheses) following the mean value±SEM.
# [1] = cAMP assay, Table 26, compounds of Example 9, read-out: hCRHR2b Average EC50
Compound,pEC50 [1],pEC50
CC[C@H](C)[C@H](N)C(=O)N[C@H](C(=O)N[C@@H](CC(C)C)C(=O)N[C@@H](CO)C(=O)N[C@@H](CC(C)C)C(=O)N[C@@H](CC(=O)O)C(=O)N[C@H](C(=O)N1CCC[C@H]1C(=O)N[C@H](C(=O)NCC(=O)N[C@@H](CC(C)C)C(=O)N[C@@H](CC(C)C)C(=O)N[C@@H](CCC(N)=O)C(=O)N[C@H](C(=O)N[C@@H](CC(C)C)C(=O)N[C@@H](CC(C)C)C(=O)N[C@@H](CCC(=O)O)C(=O)N[C@@H](CCC(N)=O)C(=O)N[C@@H](CCC(=O)O)C(=O)N[C@@H](CCCCN)C(=O)N[C@@H](CCC(N)=O)C(=O)N[C@@H](CCC(=O)O)C(=O)N[C@@H](CCCCN)C(=O)N[C@@H](CCC(=O)O)C(=O)N[C@@H](CCCCN)C(=O)N[C@@H](CCC(N)=O)C(=O)N[C@@H](CCC(N)=O)C(=O)N[C@@H](C)C(=O)N[C@@H](CCCCNC(=O)COCCOCCNC(=O)COCCOCCNC(=O)CC[C@H](NC(=O)CC[C@H](NC(=O)CCCCCCCCCCCCCCCCC(=O)O)C(=O)O)C(=O)O)C(=O)N[C@@H](CCC(=O)O)C(=O)N[C@@H](CC(N)=O)C(=O)N[C@@H](C)C(=O)N[C@@H](CCC(N)=O)C(=O)N[C@H](C(=O)N[C@@H](CC(C)C)C(=O)N[C@@H](C)C(=O)N[C@@H](CCC(N)=O)C(=O)N[C@H](C(N)=O)C(C)C)[C@@H](C)CC)[C@@H](C)CC)[C@@H](C)CC)C(C)C)C(C)C [Compound 55] (H-IVLSLDVPIGLLQILLEQEKQEKEKQQAK([AEEA-AEEA-γGlu-γGlu-C18 diacid])ENAQILAQV-NH2),8.82,–
CCCCCCCCCCCCCCCC(=O)N[C@@H](CCC(=O)NCCCC[C@H](NC(=O)[C@H](CCC(N)=O)NC(=O)[C@H](CC(C)C)NC(=O)[C@H](CC(C)C)NC(=O)CNC(=O)[C@@H](NC(=O)[C@@H]1CCCN1C(=O)[C@@H](NC(=O)[C@H](CC(=O)O)NC(=O)[C@H](CC(C)C)NC(=O)[C@H](CO)NC(=O)[C@H](CC(C)C)NC(=O)[C@@H](NC(=O)[C@@H](N)[C@@H](C)CC)C(C)C)C(C)C)[C@@H](C)CC)C(=O)N[C@@H](CC(C)C)C(=O)N[C@@H](CC(C)C)C(=O)N[C@@H](CCC(=O)O)C(=O)N[C@@H](CCC(N)=O)C(=O)N[C@@H](CCC(=O)O)C(=O)N[C@@H](CCCCN)C(=O)N[C@@H](CCC(N)=O)C(=O)N[C@@H](CCC(=O)O)C(=O)N[C@@H](CCCCN)C(=O)N[C@@H](CCC(=O)O)C(=O)N[C@@H](CCCCN)C(=O)N[C@@H](CCC(N)=O)C(=O)N[C@@H](CCC(N)=O)C(=O)N[C@@H](C)C(=O)N[C@H](C(=O)N[C@H](C(=O)N[C@@H](CC(N)=O)C(=O)N[C@@H](C)C(=O)N[C@@H](CCCNC(=N)N)C(=O)N[C@H](C(=O)N[C@@H](CC(C)C)C(=O)N[C@@H](C)C(=O)N[C@@H](CCCNC(=N)N)C(=O)N[C@H](C(N)=O)C(C)C)[C@@H](C)CC)[C@@H](C)O)[C@@H](C)O)C(=O)O [Compound 21] (H-IVLSLDVPIGLLQK([γGlu-Palmitoyl])LLEQEKQEKEKQQATTNARILARV-NH2),8.28,–
CC[C@H](C)[C@H](N)C(=O)N[C@H](C(=O)N[C@@H](CC(C)C)C(=O)N[C@@H](CO)C(=O)N[C@@H](CC(C)C)C(=O)N[C@@H](CC(=O)O)C(=O)N[C@H](C(=O)N1CCC[C@H]1C(=O)N[C@H](C(=O)NCC(=O)N[C@@H](CC(C)C)C(=O)N[C@@H](CC(C)C)C(=O)N[C@@H](CCC(N)=O)C(=O)N[C@H](C(=O)N[C@@H](CC(C)C)C(=O)N[C@@H](CC(C)C)C(=O)N[C@@H](CCCCNC(=O)COCCOCCNC(=O)COCCOCCNC(=O)CC[C@H](NC(=O)CC[C@H](NC(=O)CCCCCCCCCCCCCCCCC(=O)O)C(=O)O)C(=O)O)C(=O)N[C@@H](CCC(N)=O)C(=O)N[C@@H](CCC(=O)O)C(=O)N[C@@H](CCCCN)C(=O)N[C@@H](CCC(N)=O)C(=O)N[C@@H](CCC(=O)O)C(=O)N[C@@H](CCCCN)C(=O)N[C@@H](CCC(=O)O)C(=O)N[C@@H](CCCCN)C(=O)N[C@@H](CCC(N)=O)C(=O)N[C@@H](CCC(N)=O)C(=O)N[C@@H](C)C(=O)N[C@H](C(=O)N[C@H](C(=O)N[C@@H](CC(N)=O)C(=O)N[C@@H](C)C(=O)N[C@@H](CCC(N)=O)C(=O)N[C@H](C(=O)N[C@@H](CC(C)C)C(=O)N[C@@H](C)C(=O)N[C@@H](Cc1c[nH]cn1)C(=O)N[C@H](C(N)=O)C(C)C)[C@@H](C)CC)[C@@H](C)O)[C@@H](C)O)[C@@H](C)CC)[C@@H](C)CC)C(C)C)C(C)C [Compound 43] (H-IVLSLDVPIGLLQILLK([AEEA-AEEA-γGlu-γGlu-C18 diacid])QEKQEKEKQQATTNAQILAHV-NH2),–,7.90
CCCCCCCCCCCCCCCC(=O)N[C@@H](CCC(=O)NCCCC[C@H](NC(=O)[C@H](CCC(=O)O)NC(=O)[C@H](CCCCN)NC(=O)[C@H](CCC(=O)O)NC(=O)[C@H](CCC(N)=O)NC(=O)[C@H](CCCCN)NC(=O)[C@H](CCC(=O)O)NC(=O)[C@H](CCC(N)=O)NC(=O)[C@H](CCC(=O)O)NC(=O)[C@H](CC(C)C)NC(=O)[C@H](CC(C)C)NC(=O)[C@@H](NC(=O)[C@H](CCC(N)=O)NC(=O)[C@H](CC(C)C)NC(=O)[C@H](CC(C)C)NC(=O)CNC(=O)[C@@H](NC(=O)[C@@H]1CCCN1C(=O)[C@@H](NC(=O)[C@H](CC(=O)O)NC(=O)[C@H](CC(C)C)NC(=O)[C@H](CO)NC(=O)[C@H](CC(C)C)NC(=O)[C@@H](NC(=O)[C@@H](N)[C@@H](C)CC)C(C)C)C(C)C)[C@@H](C)CC)[C@@H](C)CC)C(=O)N[C@@H](CCC(N)=O)C(=O)N[C@@H](CCC(N)=O)C(=O)N[C@@H](C)C(=O)N[C@H](C(=O)N[C@H](C(=O)N[C@@H](CC(N)=O)C(=O)N[C@@H](C)C(=O)N[C@@H](CCCNC(=N)N)C(=O)N[C@H](C(=O)N[C@@H](CC(C)C)C(=O)N[C@@H](C)C(=O)N[C@@H](CCCNC(=N)N)C(=O)N[C@H](C(N)=O)C(C)C)[C@@H](C)CC)[C@@H](C)O)[C@@H](C)O)C(=O)O [Compound 30] (H-IVLSLDVPIGLLQILLEQEKQEKEK([γGlu-Palmitoyl])QQATTNARILARV-NH2),7.91,–
CCCCCCCCCCCCCCCC(=O)N[C@@H](CCC(=O)NCCCC[C@H](NC(=O)[C@H](CCC(N)=O)NC(=O)[C@H](CCCCN)NC(=O)[C@H](CCC(=O)O)NC(=O)[C@H](CCC(N)=O)NC(=O)[C@H](CCC(=O)O)NC(=O)[C@H](CC(C)C)NC(=O)[C@H](CC(C)C)NC(=O)[C@@H](NC(=O)[C@H](CCC(N)=O)NC(=O)[C@H](CC(C)C)NC(=O)[C@H](CC(C)C)NC(=O)CNC(=O)[C@@H](NC(=O)[C@@H]1CCCN1C(=O)[C@@H](NC(=O)[C@H](CC(=O)O)NC(=O)[C@H](CC(C)C)NC(=O)[C@H](CO)NC(=O)[C@H](CC(C)C)NC(=O)[C@@H](NC(=O)[C@@H](N)[C@@H](C)CC)C(C)C)C(C)C)[C@@H](C)CC)[C@@H](C)CC)C(=O)N[C@@H](CCCCN)C(=O)N[C@@H](CCC(=O)O)C(=O)N[C@@H](CCCCN)C(=O)N[C@@H](CCC(N)=O)C(=O)N[C@@H](CCC(N)=O)C(=O)N[C@@H](C)C(=O)N[C@H](C(=O)N[C@H](C(=O)N[C@@H](CC(N)=O)C(=O)N[C@@H](C)C(=O)N[C@@H](CCCNC(=N)N)C(=O)N[C@H](C(=O)N[C@@H](CC(C)C)C(=O)N[C@@H](C)C(=O)N[C@@H](CCCNC(=N)N)C(=O)N[C@H](C(N)=O)C(C)C)[C@@H](C)CC)[C@@H](C)O)[C@@H](C)O)C(=O)O [Compound 27] (H-IVLSLDVPIGLLQILLEQEKQK([γGlu-Palmitoyl])KEKQQATTNARILARV-NH2),7.50,–
